In patent publication US8859617B2, “Use of furan alkyl for preparing an antidiabetic drug” (Laboratoires Expanscience, priority 2004, dated 2014):

Assays:
[1] = tested on: mice on HF/HS diet; experiment: Weight of mice on HF/HS diet; format: in vivo; details: curative; TZD added to food
Description: (§1) We used adult mice (aged 6 weeks) of masculine gender fattened on a high fat/high sucrose diet (HF/HS). Feeding with the HF/HS diet began on mice aged 6 weeks and continued throughout the period of the study. The study was conducted along 2 axes: • prevention: the product was administered as soon as feeding began with the HF/HS diet; • management (curative): the product was administered 12 weeks after the start of the HF/HS diet. Total treatment time (preventive and curative): 23 weeks.
(§2) Each experimental group comprised 10 mice.

[2] = tested on: mice on HF/HS diet; experiment: Blood parameters: plasma lipids (cholesterol, LDL, HDL, TG, FFA); format: in vivo
Description: as §1, §2
(§3) Subsequently the following were analysed: lipoprotein profile (by size exclusion chromatography); apolipoportein Al; lipid composition of the liver (liver triglycerides, cholesterol and free fatty acids); histological analysis of the liver and adipose tissue; staining of accumulated lipids in the liver.
The different cholesterol blood levels and different fractions were analysed using a HPLC method.

[3] = tested on: mice on HF/HS diet; experiment: Plasma lipoprotein profile (size exclusion chromatography); format: in vivo; details: TZD
Description: as §1, §2, §3

[4] = tested on: mice on HF/HS diet; experiment: Blood glucose and insulin analysis; format: in vivo
Description: as §1, §2, §3

[5] = tested on: mice on HF/HS diet; experiment: Intraperitoneal Glucose Tolerance Test (IPGTT); format: in vivo; details: TZD; for Glucose resistance (IPGTT): preventive
Source text: Each study started at D-7 (i.e. 7 days before the start of the HF/HS diet) with an analysis of glucose tolerance using either an intra-peritoneal glucose tolerance test for some of the animals (n=5) or a sensitivity test to intravenous insulin for the other animals (n=5). At D=0 blood samples were taken to obtain basal condition values for all lipid and lipoprotein parameters, then the mice were randomly distributed irrespective of weight. The weight of each mouse and the quantity of food absorbed were measured twice a week. At weeks 3, 8, 15 and 23 the blood was collected after overnight fasting. At weeks 12 and 18 some of the animals (n=5) were subjected to an intra-peritoneal glucose tolerance test, the others (n=5) to a sensitivity test to intravenous insulin.
In addition this prevailing tolerance is often accompanied by insulin resistance. • Protocol: • fasted mice, • measurement of glycaemia at TO, • intra-peritoneal injection of glucose, • measurement of glycaemia 15, 30, 45, 60, 90, 120 and 180 min. after injection, • kinetics performed weeks 1, 12 and 18 in the preventive group and week 18 in the curative group.

[6] = tested on: mice on HF/HS diet; experiment: Intra Peritoneal Insulin Sensitive Test (IPIST); format: in vivo; details: preventive
Source text: The HF/HS diet induces a strong resistance to glucose. […] The test used is the Intra Peritoneal Insulin Sensitive Test—IPIST.

[7] = tested on: mice on HF/HS diet; experiment: Hepatic metabolism: transaminases and alkaline phosphatase (liver toxicity); format: in vivo; details: plasma; considered very moderate, does not appear to reflect liver toxicity
[8] = tested on: ACO (target PPARα); experiment: mRNA analysis in the liver (Q-RT-PCR): ACO; format: in vivo, mice; details: TZD
Description: (§4) the liver, the mRNA expressions of 8 genes were determined in 5 mice of each group using real-time Q-RT-PCR analysis.

[9] = tested on: PEPCK (target PPARγ); experiment: mRNA analysis in the liver (Q-RT-PCR): PEPCK; format: in vivo, mice; details: TZD
Description: as §4

[10] = tested on: CYP7A1; experiment: mRNA analysis in the liver (Q-RT-PCR): CYP7A1; format: in vivo, mice; details: TZD
Description: as §4

[11] = tested on: ME, FAS, ACC (fatty acid synthesis); experiment: mRNA analysis in the liver (Q-RT-PCR): ME, FAS, ACC; format: in vivo, mice; details: TZD
Description: as §4

[12] = tested on: PGC-1 (mitochondria biogenesis); experiment: mRNA analysis in muscles and BAT: PGC-1; format: in vivo, mice; details: muscle; TZD
Description: In the brown adipose tissue (BAT) and in the muscles, the mRNA expression of 3 genes was determined in 5 mice of each group by real-time Q-RTR-PCR analysis.

[13] = curative, TZD 10 mg/kg/day, (3 W***)
[14] = curative, TZD, after 3 and 11 weeks
[15] = preventive, TZD 10 mg/kg/day, (3 W***)
[16] = preventive, TZD, after 3, 8, 15 and 23 weeks

In the case of `CN(CCOc1ccc(CC2SC(=O)NC2=O)cc1)c1ccccn1` (stereo not shown) [TZD, Rosiglitazone], the “Weight loss of overweight mice” value [1] is reported as “did not cause the overweight mice to lose weight”, the Triglyceride level ([2]; curative, TZD) is reported as “No change” and the LDL ([2]; curative, TZD 10 mg/kg/day) is reported as “↓”. The HDL [2, 13] was “↓↓”, the Total cholesterol [2, 13] was “↓↓” and the HDL cholesterol level [2, 14] was “reduction”. The LDL cholesterol level [2, 14] was “reduction”, the Total cholesterol [2, 14] was “reduction” and the LDL cholesterol level ([2]; preventive, TZD) was “downward trend”. The “TG (triglycerides)” value ([2]; preventive, TZD 10 mg/kg/day) was “↓”, the HDL [2, 15] was “↓↓” and the Total cholesterol [2, 15] was “↓↓”. For the same compound, the HDL cholesterol level [2, 16] was “significant reduction”, the Total cholesterol level [2, 16] was “significant reduction” and the “Plasma levels of triglycerides” value ([2]; preventive, TZD, after 8 weeks, no additional reduction after 15 and 23 weeks) was “significantly reduced”. For the same compound, the “HDL and VLDL cholesterol fractions” value ([3]; curative, after 3 weeks) was “reduction”, the “HDL, LDL and VLDL cholesterol fractions” value ([3]; preventive, weeks 8 and 15) was “reduction” and the GLUCOSE ([4]; curative, TZD 10 mg/kg/day, (3 W**)) was “↓↓”. For the same compound, the Glucose levels [4, 14] was “dropped considerably”, the ““Constitutive” hyperglycaemia” value ([4]; preventive, TZD) was “return to normal” and the GLUCOSE ([4]; preventive, TZD 10 mg/kg/day) was “↓”. For the same compound, the INSULIN ([4]; preventive, TZD 10 mg/kg/day) was “↓”, the Glucose level reduction ([4]; preventive, TZD, weeks 8, 15 and 23) was “no longer observed” and the “Already established, diet-induced glucose resistance” value ([5]; curative) was “does not act”. The “Glucose resistance (IPGTT)” value ([5]; at 12 weeks) was “AUC value intermediate between HF/HS and normal diet”, the “Glucose resistance (IPGTT)” value ([5]; at 18 weeks, return to normal kinetics) was “completely cancels out the effects of the HF/HS diet” and the IPIST ([6]; TZD 10 mg/kg/day, (3 W***)) was “↓↓”. For the same compound, the “Insulin sensitivity (IPIST)” value ([6]; TZD, (15 min)) was “restores sensitivity to insulin”, the “Alkaline phosphatase (ALP)” value [7] was “increase” and the “ACO (target PPARα) mRNA” value [8] was “↑”. The “PEPCK (target PPARγ) mRNA” value [9] was “↑”, the “CYP7A1 (conversion oxysterol into biliary acids) mRNA” value [10] was “↑↑” and the “ME, FAS, ACC (fatty acid synthesis) mRNA” value [11] was “↑↑”. The “PGC-1 (mitochondria biogenesis) mRNA” value [12] was “↑ (muscle)”.
